Measurements as given in patent US20220267444A1, “ANTI-PD-1 ANTIBODY AND MEDICAL USE THEREOF” (CTTQ-AKESO (SHANGHAI) BIOMED. TECH. CO., LTD., priority 2019, published 2022).

Legend:
[1] = tested on: human nasopharyngeal cancer CNE-2Z cells; experiment: Raji-PDL1, PBMC and CNE-2Z co-culture with antibodies and anlotinib, IL-2 ELISA; format: cell-based; details: CNE-2Z co-culture, 3 days; compared to the anti-HEL antibody and the anlotinib monotherapies
Experimental: PBMCs were isolated from healthy human peripheral blood according to the Ficoll-Paque™ Plus reagent instruction, and the isolated PBMCs were counted and frozen. Raji-PDL1 and CNE-2Z cells (purchased from GuangZhou Jennio Biotech Co., Ltd.) were cultured in RPMI 1640+10% FBS complete medium. PBMCs were thawed and activated with 0.5 μg/mL SEB for two days. On the day of the experiment, Raji-PDL1 cells were treated with 2 μg/mL MMC for 1 h. SEB-activated PBMCs and MMC-treated Raji-PDL1 cells were collected, washed twice with PBS, resuspended in RPMI 1640+10% FBS complete medium and counted. Raji-PDL1 and PBMC cells were seeded on 96-well plates at 1×10^5 cells/well. CNE-2Z cells in logarithmic growth phase were collected and seeded on the 96-well plate at 3×10^4 cells/well. The diluted antibodies and anlotinib were added according to the study design. The mixture was mixed evenly and incubated in a 5% CO2 incubator at 37° C. for 3 days. After 3 days, the cell culture supernatant was collected and tested for IL-2 according to ELISA KIT instruction. The media in this experiment were all 10% FBS+RPMI 1640.

[2] = tested on: MSI-H/dMMR tumor SW48 cells; experiment: Raji-PDL1, PBMC and SW48 co-culture with antibodies and anlotinib, IL-2 ELISA; format: cell-based, human; details: 3 days, compared to anti-HEL antibody
Experimental: SW48 is a human colorectal cancer cell line and is identified with MSI-H/dMMR phenotype (Branch P et al., (1995), Cancer Res, 55(11): 2304-2309). It was used for detecting the enhanced immune cell response to tumor of MSI-H/dMMR phenotype by 14C12H1L1(hG1TM).
PBMCs were isolated from healthy human peripheral blood according to the Ficoll-Paque™ Plus reagent instruction, and the isolated PBMCs were counted and frozen. Raji-PDL1 cells were cultured in RPMI 1640+10% FBS complete medium, and SW48 cells (purchased from GuangZhou Jennio Biotech Co., Ltd.) were cultured in DMEM+10% FBS complete medium. PBMCs were thawed and activated with 0.5 μg/mL SEB for two days. On the day of the experiment, Raji-PDL1 cells were treated with 2 μg/mL MMC for 1 h. SEB-activated PBMCs and MMC-treated Raji-PDL1 cells were collected, washed twice with PBS, resuspended in RPMI 1640+10% FBS complete medium and counted. Raji-PDL1 and PBMC cells were seeded on 96-well plates at 1×10^5 cells/well. SW48 cells in logarithmic growth phase were collected and seeded on the 96-well plate at 2×10^5 cells/well. The diluted antibody and anlotinib was added according to the study design. The mixture was mixed evenly and incubated in a 5% CO2 incubator at 37° C. for 3 days. After 3 days, the cell culture supernatant was collected and tested for IL-2 according to ELISA KIT instruction. […]

CHO-K1-PD1 cells = experiment: Antibody-mediated phagocytic activity (ADCP) of murine macrophages on CHO-K1-PD1; format: cell-based, mouse; details: CHO-K1-PD1-CFSE target cells
Experimental: To detect the antibody dependent cellular phagoxytosis (ADCP) activity, murine macrophages were used as effector cells and cell lines overexpressing PD1 were used as target cells. The femoral bone marrow of Blab/c mice (purchased from Guangdong Medical Laboratory Animal Center) was first aseptically collected and lysed by erythrocyte lysis buffer on ice for 5 min. The lysis was terminated with DMEM complete medium (containing 10% FBS), and the lysate was centrifuged at 1000 rpm and washed twice. The cell pellet was resuspended in 10 mL of DMEM complete medium and M-CSF were added at a working concentration of 100 ng/mL. […] The supernatant was discarded and the cells were suspended in DMEM complete medium (containing 10% FBS) and counted. […] CHO-K1-PD1 cells (a CHO-K1 cell line overexpressing PD1) were centrifuged at 170×g for 5 min, washed once with PBS, resuspended and counted. The viability was determined. […]
The test antibodies were diluted in DMEM complete medium to 20, 2 and 0.2 μg/mL (the working concentrations were 10, 1 and 0.1 μg/mL). […] The cells were transferred to loading tube and analyzed by BD FACS Calibur flow cytometer. […] The phagocytosis rate was determined as the ratio of the number of double positive cells to the number of APC positive cells, and the antibody-mediated ADCP activity was evaluated. […]

[3] = tested on: human colorectal cancer SW837 cells; experiment: Raji-PDL1, PBMC and SW837 co-culture, IL-2 ELISA; format: cell-based; details: 3 days
Experimental: SW837 is a human colorectal cancer cell line of non-MSI-H/dMMR (i.e., MSS) phenotype (Guo J et al., Cancer Res., 2011; 71(8):2978-2987), and was used for detecting the enhanced immune cell response to tumor of non-MSI-H/dMMR (i.e., MSS) phenotype by 14C12H1L1(hG1TM) in this example.
PBMCs were isolated from healthy human peripheral blood according to the Ficoll-Paque™ Plus reagent instruction, and the isolated PBMCs were counted and frozen. Raji-PDL1 cells were cultured in RPMI 1640+10% FBS complete medium, and SW837 cells (purchased from Shanghai Honsun Biological Technology Co., Ltd) were cultured in 10% FBS+Leibovitz's L-15 complete medium (purchased from Gibco). PBMCs were thawed and activated with 0.5 μg/mL SEB for two days. On the day of the experiment, Raji-PDL1 cells were treated with 2 μg/mL MMC for 1 h. SEB-activated PBMCs and MMC-treated Raji-PDL1 cells were collected, washed twice with PBS, resuspended in RPMI 1640+10% FBS complete medium and counted. Raji-PDL1 and PBMC cells were seeded on 96-well plates at 1×10^5 cells/well. SW837 cells in logarithmic growth phase were collected and seeded on the 96-well plate at 5×10^4 cells/well. The diluted antibody was added according to the study design. The mixture was mixed evenly and incubated in a 5% CO2 incubator at 37° C. for 3 days. […]

With “nivolumab: anti-PD-1 antibody nivolumab (trade name: Opdivo), purchased from Bristol-Myers Squibb [reference compound]” the “immune response of immune cells (IL-2 secretion level)” value [1] was “significantly increased IL-2 secretion level”, the “immune response of immune cells (secretion level of IL-2)” value [2] was “significantly increased secretion level of IL-2” and the ADCP effect (CHO-K1-PD1 cells) was “have ADCP effects”. For the same substance, the “phagocytic rate relative to that of the isotype control anti-HEL antibody” value (CHO-K1-PD1 cells; at the same concentration, 2 h, flow cytometry) was 4.26 times and the “immune response of immune cells (IL-2)” value [3] was “significantly enhanced the immune response”.
